Assay results as given in patent publication US20120184532A1 (priority 2009, published 2012).
Where “and” joins values, the source holds several entries; their conditions need not be identical. Equal entries are not always repeated. Entries after “also recorded” stand apart in the source; their conditions may differ. Structures can show the parent of a compound that is named as a salt.

How the values were obtained:
[1] = target: T1, Acetylcholinesterase (h), human recombinant (HEK-293 cells) (Homo sapiens, UniProt P22303); experiment: In vitro human acetylcholine esterase inhibition; assay type: biochemical; details: in contrast to galantamine
T1 construct: host or cells: HEK-293 cells

[2] = system: rabbit stomach circular smooth muscle; experiment: Ex vivo rabbit stomach circular smooth muscle, electrical field stimulation; details: rabbit stomach strips, EFS, 100 nM to 100 μM
ferret = experiment: Emetic activity (retching and vomiting) in the ferret; details: for Time (min) to onset of: Retching / Time (min) to onset of: Vomiting / Total number of individual incidences of: Retching / Total number of individual incidences of: Vomiting: 2 hr. observation; for animals dosed that retched / animals dosed that vomited: 20 mg (free base)/kg or similar molar dose, oral
Sprague Dawley rat = experiment: PICA behavior (kaolin consumption) as surrogate for emesis in the rat; assay type: in vivo; details: for rat kaolin consumption (g) over 24 h post-dose: single subcutaneous dose 3.5 mg base/kg
Procedure: This is a well established model for this purpose in the rat (Takeda N et al (1993) 45 817-21).
Once determined, a comparison was made of the effects of these doses on kaolin consumption over a 0-96 hour period in 24 h increments.
In detail groups of 10 male Sprague Dawley rats were habituated to kaolin for 3 days, then singly housed in grid-bottomed cages and habituated for a further 2 days prior to dosing. On the day of drug administration, the animals were food-deprived for 1 h prior to dosing. […] Access to a weighed quantity of food and kaolin was then restored. Food and kaolin was weighed 24, 48, 72 and 96 h after dosing.

[3] = system: human stomach circular smooth muscle; experiment: Ex vivo human stomach circular smooth muscle, electrical field stimulation; details: human stomach strips, EFS, 100 nM to 100 μM
rat = experiment: Comparative acute toxicity (behavior) of sc and po galantamine in the rat; assay type: in vivo; details: individual rats
[4] = 40 mg/kg as base p.o., individual animals
[5] = 20 mg/kg p.o., individual animals, listed as Galantamine HBr, hydrobromide, 20 mg/kg
[6] = 20 mg/kg p.o., individual animals, listed as Galantamine valine ester tartrate, 20 mg/kg

T1 sequence (P22303 32-614): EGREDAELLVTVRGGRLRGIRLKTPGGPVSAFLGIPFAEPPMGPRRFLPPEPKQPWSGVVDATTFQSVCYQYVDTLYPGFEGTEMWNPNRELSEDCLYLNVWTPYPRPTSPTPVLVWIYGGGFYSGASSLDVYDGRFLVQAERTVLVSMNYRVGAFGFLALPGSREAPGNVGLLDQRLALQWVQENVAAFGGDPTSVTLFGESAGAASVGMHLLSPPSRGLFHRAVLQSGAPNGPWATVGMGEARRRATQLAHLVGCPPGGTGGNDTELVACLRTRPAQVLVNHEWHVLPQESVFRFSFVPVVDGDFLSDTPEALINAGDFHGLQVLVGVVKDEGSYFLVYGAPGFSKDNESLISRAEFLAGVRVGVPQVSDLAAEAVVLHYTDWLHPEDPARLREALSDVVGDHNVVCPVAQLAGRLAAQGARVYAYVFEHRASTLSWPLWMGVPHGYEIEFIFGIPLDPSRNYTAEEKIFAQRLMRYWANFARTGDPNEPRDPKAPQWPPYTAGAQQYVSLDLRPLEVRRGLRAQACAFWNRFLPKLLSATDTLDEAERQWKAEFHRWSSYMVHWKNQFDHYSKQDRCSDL

## COc1ccc2c3c1O[C@H]1C[C@@H](OC(=O)CCCC(=O)Nc4ccc(C(=O)O)cc4)C=C[C@@]31CCN(C)C2 [Galantamine [glutaryl-PABA] ester]
[1]
  inhibitory actions toward human acetylcholine esterase (in words): significantly less inhibitory actions

## COc1ccc2c3c1O[C@H]1C[C@@H](OC(=O)CCC(=O)N[C@H](C(=O)O)C(C)C)C=C[C@@]31CCN(C)C2 [Galantamine succinyl valine ester]
[2]
  stimulation of smooth muscle contractions (change in force production): complete absence of any such effect
[1]
  inhibitory actions toward human acetylcholine esterase (in words): significantly less inhibitory actions
ferret; 40 mg/kg as base p.o., Mean
  Time (min) to onset of: Retching: >120 min
  Time (min) to onset of: Vomiting: >120 min
  Total number of individual incidences of: Retching: 0
  Total number of individual incidences of: Vomiting: 0
ferret; [4]
  Time (min) to onset of: Retching: >120 min
  Time (min) to onset of: Vomiting: >120 min
  Total number of individual incidences of: Retching: 0
  Total number of individual incidences of: Vomiting: 0
ferret; oral 40 mg galantamine (free base equivs)/kg
  retching or vomiting observed (in words): no retching or vomiting at all
Sprague Dawley rat; 11.75 mg base/kg po (galantamine free base content), 24 h
  Cumulative mean ± SD kaolin consumption: 0.14 ± 0.20 g
Sprague Dawley rat; 11.75 mg base/kg po (galantamine free base content), 48 h
  Cumulative mean ± SD kaolin consumption: 0.29 ± 0.24 g
Sprague Dawley rat; 11.75 mg base/kg po (galantamine free base content), 72 h
  Cumulative mean ± SD kaolin consumption: 0.48 ± 0.27 g
Sprague Dawley rat; 11.75 mg base/kg po (galantamine free base content), 96 h
  Cumulative mean ± SD kaolin consumption: 0.57 ± 0.40 g
Sprague Dawley rat; 23.5 mg base/kg po (galantamine free base content), 24 h
  Cumulative mean ± SD kaolin consumption: 0.31 ± 0.53 g
Sprague Dawley rat; 23.5 mg base/kg po (galantamine free base content), 48 h
  Cumulative mean ± SD kaolin consumption: 0.61 ± 0.69 g
Sprague Dawley rat; 23.5 mg base/kg po (galantamine free base content), 72 h
  Cumulative mean ± SD kaolin consumption: 0.95 ± 0.96 g
Sprague Dawley rat; 23.5 mg base/kg po (galantamine free base content), 96 h
  Cumulative mean ± SD kaolin consumption: 1.25 ± 1.31 g
Sprague Dawley rat; 47 mg base/kg po (galantamine free base content), 24 h
  Cumulative mean ± SD kaolin consumption: 0.15 ± 0.18 g
Sprague Dawley rat; 47 mg base/kg po (galantamine free base content), 48 h
  Cumulative mean ± SD kaolin consumption: 0.40 ± 0.18 g
Sprague Dawley rat; 47 mg base/kg po (galantamine free base content), 72 h
  Cumulative mean ± SD kaolin consumption: 0.63 ± 0.28 g
Sprague Dawley rat; 47 mg base/kg po (galantamine free base content), 96 h
  Cumulative mean ± SD kaolin consumption: 0.91 ± 0.45 g
Sprague Dawley rat; 47 mg base/kg po (galantamine free base content), 96 h, listed as GSVE
  Cumulative mean ± SD kaolin consumption: 0.91 ± 0.45 g
[3]
  stimulation of smooth muscle contractions (change in force production): complete absence of any such effect

## COc1ccc2c3c1O[C@H]1C[C@@H](O)C=C[C@@]31CCN(C)C2 [Galantamine, (4aS,6R,8aS)-4a,5,9,10,11,12-hexahydro-3-methoxy-11-methyl-6H-benzofuro[3a,3,2ef][2]benzazepin-6-ol hydrobromide]
[2]
  stimulation of smooth muscle contractions (change in force production): evidence of a dose response
rat; 3.5 mg/kg sc, 2 min post dose, hydrobromide
  rat behavior: Rat 1: purposeless chewing, mouth; also recorded: Rat 3: purposeless chewing, mouth
rat; 3.5 mg/kg sc, 5 min post-dose, hydrobromide
  rat behavior: Rat 3: As per 2 min; also recorded: Rat 1: purposeless chewing, mouth
rat; 3.5 mg/kg sc, 10 min post-dose, hydrobromide
  rat behavior: Rat 1: Tremors, flattened rostral body; also recorded: Rat 3: purposeless chewing, mouth
rat; 3.5 mg/kg sc, 20 min post-dose, hydrobromide
  rat behavior: Rat 1: Quiescent, flattened body posture,; also recorded: Rat 3: Some ambulation restored
rat; 3.5 mg/kg sc, 30 min post-dose, hydrobromide
  rat behavior: Rat 1: Quiescent, flattened body posture,; also recorded: Rat 3: Some ambulation restored
rat; 3.5 mg/kg sc, 45 min post-dose
  rat behavior: Rat 1: food consumption and more
rat; 3.5 mg/kg sc, 1 h, hydrobromide
  rat behavior: Rat 1: Normal; also recorded: Rat 3: Normal
rat; 40 mg/kg po, 10 min post-dose, hydrobromide
  rat behavior: Rat 6: Quiescent, purposeless; also recorded: Rat 7: Quiescent, purposeless chewing,
rat; 40 mg/kg po, 20 min post-dose, hydrobromide
  rat behavior: Ratc 6 as per 10 min + arching; also recorded: Rat 7: grooming + purposeless
rat; 40 mg/kg po, 30 min post-dose
  rat behavior: Rat 6: quiescent, purposeless chewing,
rat; 40 mg/kg po, 45 min post-dose, hydrobromide
  rat behavior: Rat 6: flattened body posture, chewing,; also recorded: Rat 7: grooming, sawdust consumption
rat; 40 mg/kg po, 1 h, hydrobromide
  rat behavior: Rat 6: flattened body posture, tremor; also recorded: Rat 7: Grooming, sawdust
rat; 40 mg/kg po, 1.5 h, hydrobromide
  rat behavior: Rat 7: quiet, falttened posture
rat; 40 mg/kg po, 2 h, hydrobromide
  rat behavior: Rat 6: much improved; also recorded: Rat 7: much improved
rat; 40 mg/kg po, 3 h, hydrobromide
  rat behavior: Rat 6: normal; also recorded: Rat 7: normal
ferret
  animals dosed that retched: 55%
  animals dosed that vomited: 40%
ferret; [5]
  Time (min) to onset of: Retching: 6 min (2×) and 33 min and 3 min and 5 min (3×) and >120 min (8×) and 41 min and 11 min and 10 min and 7 min (2×)
  Time (min) to onset of: Vomiting: 41 min and 33 min and 75 min and 5 min (2×) and >120 min (11×) and 37 min and 10 min and 13 min and 6 min
  Total number of individual incidences of: Retching: 22 and 21 and 29 and 18 and 0 (9×) and 31 and 3 (2×) and 6 and 2 and 5 and 13
  Total number of individual incidences of: Vomiting: 1 (6×) and 4 (2×) and 0 (11×) and 2
Sprague Dawley rat; Mean
  rat kaolin consumption (g) over 24 h post-dose: 0.25 g
Sprague Dawley rat; individual rats, hydrobromide
  rat kaolin consumption (g) over 24 h post-dose: 0.67 g and 0.36 g and 0.88 g and 0.08 g and 0.00 g (3×) and 0.21 g and 0.05 g
[3]
  stimulation of smooth muscle contractions (change in force production): evidence of a dose response

## COc1ccc2c3c1O[C@H]1C[C@@H](OC(=O)[C@@H](N)C(C)C)C=C[C@@]31CCN(C)C2 [Galantamine-(S)-valine ester, galantamine-(S)-valine ester tartrate]
ferret
  animals dosed that retched: 45%
  animals dosed that vomited: 18%
ferret; 20 mg/kg p.o., Mean
  Total number of individual incidences of: Retching: 3.9
ferret; [6]
  Time (min) to onset of: Retching: >120 min (6×) and 35 min and 11 min and 9 min and 6 min
  Time (min) to onset of: Vomiting: >120 min (9×) and 44 min and 9 min
  Total number of individual incidences of: Retching: 0 (6×) and 22 and 2 (2×) and 3 and 14
  Total number of individual incidences of: Vomiting: 0 (9×) and 1 and 3
